# Measurements taken from paper PMC4211880, “α-Mangostin Disrupts the Development of Streptococcus mutans Biofilms and Facilitates Its Mechanical Removal” (PLoS ONE, 2014).
# Columns and labels:
# GtfB = target: T1, GtfB (Streptococcus mutans, UniProt P08987); assay: incorporation of […]-glucose from labelled sucrose into glucans, scintillation counting; format: biochemical
# T1 construct: secreted enzyme from culture supernatant of S. milleri KSB8 carrying gtfB of S. mutans GS-5; purified to near homogeneity by hydroxyapatite chromatography
# GtfC = target: T2, GtfC (Streptococcus mutans, UniProt P13470); assay: as above; format: biochemical
# T2 construct: secreted enzyme from culture supernatant of S. mutans WHB 410 (expresses gtfC only); purified to near homogeneity by hydroxyapatite chromatography
# T2 sequence (P13470 35-1455): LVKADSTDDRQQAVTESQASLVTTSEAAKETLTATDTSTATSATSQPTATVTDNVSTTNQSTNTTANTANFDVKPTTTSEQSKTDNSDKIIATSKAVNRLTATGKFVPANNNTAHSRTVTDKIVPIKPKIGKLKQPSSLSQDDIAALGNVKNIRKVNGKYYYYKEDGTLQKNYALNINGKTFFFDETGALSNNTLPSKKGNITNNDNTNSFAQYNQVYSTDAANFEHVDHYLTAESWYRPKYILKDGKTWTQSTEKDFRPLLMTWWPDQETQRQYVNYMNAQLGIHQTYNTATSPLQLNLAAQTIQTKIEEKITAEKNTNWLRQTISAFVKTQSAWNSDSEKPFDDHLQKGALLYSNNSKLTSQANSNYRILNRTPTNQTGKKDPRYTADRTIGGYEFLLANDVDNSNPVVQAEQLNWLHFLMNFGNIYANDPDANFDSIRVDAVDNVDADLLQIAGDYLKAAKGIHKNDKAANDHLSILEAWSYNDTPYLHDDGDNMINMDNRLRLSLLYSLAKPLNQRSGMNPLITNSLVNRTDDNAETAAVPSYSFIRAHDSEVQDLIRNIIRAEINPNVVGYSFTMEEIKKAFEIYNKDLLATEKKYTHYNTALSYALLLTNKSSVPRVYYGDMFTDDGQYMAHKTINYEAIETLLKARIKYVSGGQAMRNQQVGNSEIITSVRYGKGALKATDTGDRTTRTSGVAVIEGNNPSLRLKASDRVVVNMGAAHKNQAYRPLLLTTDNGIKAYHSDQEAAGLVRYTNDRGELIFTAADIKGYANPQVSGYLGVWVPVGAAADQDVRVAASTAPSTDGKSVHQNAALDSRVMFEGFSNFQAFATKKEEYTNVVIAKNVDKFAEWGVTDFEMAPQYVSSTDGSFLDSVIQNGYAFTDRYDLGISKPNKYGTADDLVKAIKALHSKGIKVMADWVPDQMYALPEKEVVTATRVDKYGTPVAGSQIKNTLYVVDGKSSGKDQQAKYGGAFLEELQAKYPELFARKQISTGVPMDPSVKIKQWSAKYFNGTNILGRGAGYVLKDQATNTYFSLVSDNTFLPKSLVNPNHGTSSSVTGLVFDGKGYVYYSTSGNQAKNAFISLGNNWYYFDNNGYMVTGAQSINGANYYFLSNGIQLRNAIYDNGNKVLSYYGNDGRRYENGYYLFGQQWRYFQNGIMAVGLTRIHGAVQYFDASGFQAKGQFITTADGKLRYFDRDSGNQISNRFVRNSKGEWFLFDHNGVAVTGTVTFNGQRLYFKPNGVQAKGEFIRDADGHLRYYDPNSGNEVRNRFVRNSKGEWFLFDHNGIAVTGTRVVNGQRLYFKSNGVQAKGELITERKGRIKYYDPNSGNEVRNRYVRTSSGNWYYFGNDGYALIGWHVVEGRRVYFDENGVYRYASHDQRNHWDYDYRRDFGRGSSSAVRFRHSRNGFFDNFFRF
# T1 sequence (P08987 35-1476): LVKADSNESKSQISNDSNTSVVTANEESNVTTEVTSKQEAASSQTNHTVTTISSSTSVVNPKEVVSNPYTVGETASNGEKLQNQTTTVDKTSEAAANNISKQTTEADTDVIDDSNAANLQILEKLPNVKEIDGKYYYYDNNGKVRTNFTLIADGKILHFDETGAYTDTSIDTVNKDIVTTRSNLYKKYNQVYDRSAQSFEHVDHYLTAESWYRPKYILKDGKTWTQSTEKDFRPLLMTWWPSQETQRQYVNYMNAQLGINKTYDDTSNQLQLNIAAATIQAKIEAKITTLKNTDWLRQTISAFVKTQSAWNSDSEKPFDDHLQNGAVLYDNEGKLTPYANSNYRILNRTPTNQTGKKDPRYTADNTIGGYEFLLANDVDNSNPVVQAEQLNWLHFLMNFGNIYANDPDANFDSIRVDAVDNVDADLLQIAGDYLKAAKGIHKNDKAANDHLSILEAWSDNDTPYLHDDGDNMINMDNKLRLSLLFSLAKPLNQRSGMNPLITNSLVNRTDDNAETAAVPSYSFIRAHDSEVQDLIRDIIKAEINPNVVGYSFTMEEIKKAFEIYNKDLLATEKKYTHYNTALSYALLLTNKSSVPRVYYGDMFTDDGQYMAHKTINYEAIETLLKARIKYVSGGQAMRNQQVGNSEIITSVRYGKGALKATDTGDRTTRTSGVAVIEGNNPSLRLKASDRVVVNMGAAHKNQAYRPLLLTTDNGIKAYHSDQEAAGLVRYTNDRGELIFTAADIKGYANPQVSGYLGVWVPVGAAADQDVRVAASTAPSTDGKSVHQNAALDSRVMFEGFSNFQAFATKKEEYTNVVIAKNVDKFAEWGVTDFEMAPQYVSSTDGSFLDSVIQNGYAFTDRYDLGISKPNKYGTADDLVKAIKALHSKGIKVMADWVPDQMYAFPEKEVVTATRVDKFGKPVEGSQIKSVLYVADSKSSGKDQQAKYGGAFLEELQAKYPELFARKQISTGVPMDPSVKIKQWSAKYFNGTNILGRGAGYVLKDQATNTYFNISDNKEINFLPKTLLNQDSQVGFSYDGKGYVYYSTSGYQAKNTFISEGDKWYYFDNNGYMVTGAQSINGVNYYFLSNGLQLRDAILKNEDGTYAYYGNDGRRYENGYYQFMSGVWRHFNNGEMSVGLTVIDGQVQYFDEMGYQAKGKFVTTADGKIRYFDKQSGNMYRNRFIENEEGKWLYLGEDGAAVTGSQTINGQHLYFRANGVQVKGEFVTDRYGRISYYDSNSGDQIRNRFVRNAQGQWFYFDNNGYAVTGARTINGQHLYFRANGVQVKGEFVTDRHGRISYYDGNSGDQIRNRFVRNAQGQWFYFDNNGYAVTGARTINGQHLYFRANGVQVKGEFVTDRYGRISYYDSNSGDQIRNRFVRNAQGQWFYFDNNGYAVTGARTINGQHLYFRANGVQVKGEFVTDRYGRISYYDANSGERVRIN
smiles,measurement,setting,value
"COc1c(O)cc2oc3cc(O)c(CC=C(C)C)c(O)c3c(=O)c2c1CC=C(C)C [αMG, α-mangostin]",inhibition at 150 µM,GtfB,> 70%
same,inhibition at 150 µM,GtfC,> 70%
